Consider 25 compounds from PubChem BioAssay AID330 (DTP/NCI, 2004).

“And” between values parts separate entries of the source, which are not always exact repeats. Equal values may be shown once. Inconclusive results and toxic doses are left out.

The subject of this test is P388 leukemia ip, CD2F1 mice, survival T/C. Description: NCI In Vivo Anticancer Drug Screen. Data for tumor model P388 Leukemia (intraperitoneal) in CD2F1 (CDF1) mice. The conditions noted are these: endpoint: median survival time, higher = longer survival. The essentials:
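Mice carrying the transplanted tumor received test compound or vehicle. Survival was recorded in each group, and the value is the treated-group measurement divided by that of the vehicle-treated control group.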

The mark [1] stands for this setting: dose: 12.5 mg/kg/injection, schedule: Q01DX001 (ip), vehicle: Klucel (hydroxypropylcellulose) (HPC).
Setting [2] is: dose: 25.0 mg/kg/injection, schedule: Q01DX001 (ip), vehicle: Klucel (hydroxypropylcellulose) (HPC).
[3] abbreviates: dose: 50.0 mg/kg/injection, schedule: Q01DX001 (ip), vehicle: Klucel (hydroxypropylcellulose) (HPC).
The mark [4] stands for this setting: dose: 6.25 mg/kg/injection, schedule: Q01DX009 (ip), vehicle: Klucel (hydroxypropylcellulose) (HPC).
[5] abbreviates: dose: 50.0 mg/kg/injection, schedule: Q01DX009 (ip), vehicle: Klucel (hydroxypropylcellulose) (HPC).
[6] abbreviates: dose: 3.12 mg/kg/injection, schedule: Q01DX009 (ip), vehicle: Klucel (hydroxypropylcellulose) (HPC).
[7] abbreviates: dose: 100.0 mg/kg/injection, schedule: Q04DX003 (ip), vehicle: saline with Tween-80.
Setting [8] is: dose: 200.0 mg/kg/injection, schedule: Q04DX003 (ip), vehicle: saline with Tween-80.
The mark [9] stands for this setting: dose: 400.0 mg/kg/injection, schedule: Q04DX003 (ip), vehicle: saline with Tween-80.
[10] abbreviates: dose: 60.0 mg/kg/injection, schedule: Q01DX005 (ip), vehicle: saline with Tween-80.
The mark [11] stands for this setting: dose: 120.0 mg/kg/injection, schedule: Q01DX005 (ip), vehicle: saline with Tween-80.
[12] abbreviates: dose: 240.0 mg/kg/injection, schedule: Q01DX005 (ip), vehicle: saline with Tween-80.
Setting [13] is: dose: 100.0 mg/kg/injection, schedule: Q01DX009 (ip), vehicle: saline with Tween-80.
The mark [14] stands for this setting: dose: 50.0 mg/kg/injection, schedule: Q01DX009 (ip), vehicle: saline with Tween-80.

Regarding `O=C1c2ccccc2C(=O)c2c1cc1cccccc2-1`, the T/C is, setting by setting: (dose: 3.13 mg/kg/injection, schedule: Q01DX005 (ip), vehicle: saline with Tween-80) 99 % of control; (dose: 6.25 mg/kg/injection, schedule: Q01DX005 (ip), vehicle: saline with Tween-80) 97 % of control; (dose: 12.5 mg/kg/injection, schedule: Q01DX005 (ip), vehicle: saline with Tween-80) 90 % of control and 91 % of control; (dose: 50.0 mg/kg/injection, schedule: Q01DX005 (ip), vehicle: saline with Tween-80) 89 % of control; (dose: 200.0 mg/kg/injection, schedule: Q01DX005 (ip), vehicle: saline with Tween-80) 95 % of control.

For the compound `NC(=O)c1nc2c(N)nc(-c3ccccc3)nc2nc1N`, the T/C was 94 % of control (dose: 150.0 mg/kg/injection, schedule: Q01DX009 (ip), vehicle: saline with Tween-80) and 95 % of control (dose: 300.0 mg/kg/injection, schedule: Q01DX009 (ip), vehicle: saline with Tween-80).

For `O=C(c1ccccc1)C(c1ccccc1)n1nc2c(c1-c1ccccc1)CCC2` (centres undefined), the T/C under setting [1] was 100 % of control; the T/C under setting [2] was 95 % of control; the T/C under setting [3] is 98 % of control; the T/C (dose: 100.0 mg/kg/injection, schedule: Q01DX001 (ip), vehicle: Klucel (hydroxypropylcellulose) (HPC)) was 100 % of control.

Turning to `CCN=C1C=C/C(=C(/c2ccc(NCC)c(C)c2)c2cc(O)c(S(=O)(=O)O)cc2S(=O)(=O)O)C=C1C`, the T/C reads like this: (dose: 60.0 mg/kg/injection, schedule: Q01DX005 (ip), vehicle: saline) 107 % of control; (dose: 120.0 mg/kg/injection, schedule: Q01DX005 (ip), vehicle: saline) 106 % of control; (dose: 240.0 mg/kg/injection, schedule: Q01DX005 (ip), vehicle: saline) 102 % of control.

Take `O=C(/C=C/c1cccnc1)/C=C/c1cccnc1`: the T/C is, setting by setting: under setting [4], 122 % of control; (dose: 12.5 mg/kg/injection, schedule: Q01DX009 (ip), vehicle: Klucel (hydroxypropylcellulose) (HPC)) 124 % of control; (dose: 25.0 mg/kg/injection, schedule: Q01DX009 (ip), vehicle: Klucel (hydroxypropylcellulose) (HPC)) 124 % of control; under setting [5], 120 % of control.

For the compound `Cc1ccc2snnc2c1`, the T/C by setting is: (dose: 1.56 mg/kg/injection, schedule: Q01DX009 (ip), vehicle: Klucel (hydroxypropylcellulose) (HPC)) 98 % of control; under setting [6], 99 % of control; under setting [4], 98 % of control and 95 % of control; under setting [1], 100 % of control; under setting [2], 95 % of control; under setting [3], 99 % of control.

Take `NC(=O)CC1(C(=O)O)c2ccccc2-c2ccccc21`: the T/C was 97 % of control under setting [7], 97 % of control under setting [8] and 108 % of control under setting [9].

As to `O=C1C=Cn2cc(-c3ccccc3)c(-c3ccccc3)c21`, the T/C reads like this: (dose: 50.0 mg/kg/injection, schedule: Q01DX005 (ip), vehicle: Klucel (hydroxypropylcellulose) (HPC)) 96 % of control; (dose: 100.0 mg/kg/injection, schedule: Q01DX005 (ip), vehicle: Klucel (hydroxypropylcellulose) (HPC)) 97 % of control; (dose: 200.0 mg/kg/injection, schedule: Q01DX005 (ip), vehicle: Klucel (hydroxypropylcellulose) (HPC)) 95 % of control.

For `O=C([CH-]C(=O)C(F)(F)F)C(F)(F)F.O=C([CH-]C(=O)C(F)(F)F)C(F)(F)F.O=C([CH-]C(=O)C(F)(F)F)C(F)(F)F.[Ru+3]`, the T/C is, setting by setting: (dose: 7.5 mg/kg/injection, schedule: Q01DX005 (ip), vehicle: Klucel (hydroxypropylcellulose) (HPC)) 97 % of control; (dose: 15.0 mg/kg/injection, schedule: Q01DX005 (ip), vehicle: Klucel (hydroxypropylcellulose) (HPC)) 87 % of control.

Turning to `NC1(C(=O)NCSc2ccccc2)CC=CCC1` (centres undefined), the T/C runs as follows: (dose: 45.5 mg/kg/injection, schedule: Q01DX005 (ip), vehicle: Klucel (hydroxypropylcellulose) (HPC)) 97 % of control; (dose: 91.0 mg/kg/injection, schedule: Q01DX005 (ip), vehicle: Klucel (hydroxypropylcellulose) (HPC)) 103 % of control; (dose: 182.0 mg/kg/injection, schedule: Q01DX005 (ip), vehicle: Klucel (hydroxypropylcellulose) (HPC)) 96 % of control.

Consider `CC1(C)Cc2ccccc2/C1=C/c1ccccn1`, for which the T/C reads like this: under setting [10], 98 % of control; under setting [11], 100 % of control; under setting [12], 108 % of control.

As to `COc1cc([C@@H]2c3cc4c(cc3[C@H](OC(=O)CCCC(=O)O)[C@H]3COC(=O)[C@H]23)OCO4)cc(OC)c1OC`, the T/C is 100 % of control (dose: 3.12 mg/kg/injection, schedule: Q01DX005 (ip), vehicle: saline); 104 % of control (dose: 6.25 mg/kg/injection, schedule: Q01DX005 (ip), vehicle: saline); 110 % of control and 122 % of control (dose: 12.5 mg/kg/injection, schedule: Q01DX005 (ip), vehicle: saline).

As for `CC(C)(C)N1COCCOC1`, the T/C under setting [13] was 118 % of control.

Turning to `COC(=O)c1cc(-c2ccc([N+](=O)[O-])cc2)n2c(N)nnc2n1`, the T/C is 92 % of control under setting [10] and 86 % of control under setting [11].

As to `CCC1(C)c2cc(C)c(C(C)=O)cc2C(C)(C)C1C` (centres undefined), the T/C by setting is: (dose: 25.0 mg/kg/injection, schedule: Q01DX009 (ip), vehicle: saline with Tween-80) 100 % of control; under setting [14], 101 % of control; under setting [13], 100 % of control.

Turning to `O=C1CCC2CCC1N2` (centres undefined), the T/C by setting is: (dose: 50.0 mg/kg/injection, schedule: Q01DX005 (ip), vehicle: saline) 100 % of control; (dose: 100.0 mg/kg/injection, schedule: Q01DX005 (ip), vehicle: saline) 100 % of control; (dose: 200.0 mg/kg/injection, schedule: Q01DX005 (ip), vehicle: saline) 100 % of control.

Turning to `O=C(NO)c1ccncc1`, the T/C was 100 % of control (dose: 100.0 mg/kg/injection, schedule: Q04DX003 (ip), vehicle: saline); 109 % of control (dose: 200.0 mg/kg/injection, schedule: Q04DX003 (ip), vehicle: saline); 109 % of control (dose: 400.0 mg/kg/injection, schedule: Q04DX003 (ip), vehicle: saline).

`c1ccc(CC[n+]2ccccc2)cc1`: the T/C runs as follows: (dose: 12.5 mg/kg/injection, schedule: Q01DX009 (ip), vehicle: saline) 88 % of control; (dose: 25.0 mg/kg/injection, schedule: Q01DX009 (ip), vehicle: saline) 87 % of control.

With `CCCCCCCC(Nc1nncs1)Nc1nncs1`, the T/C is 101 % of control (dose: 15.0 mg/kg/injection, schedule: Q01DX005 (ip), vehicle: saline with Tween-80); 92 % of control (dose: 30.0 mg/kg/injection, schedule: Q01DX005 (ip), vehicle: saline with Tween-80); 87 % of control and 90 % of control under setting [10]; 91 % of control under setting [12].

For the compound `c1ccc(Sc2cccc3ccccc23)cc1`, the T/C is 95 % of control under setting [7], 109 % of control under setting [8] and 104 % of control under setting [9].

Take `COc1ccc(/C=C/C(=O)C(C)(C)CN(C)CCN(C)C)cc1`: the T/C by setting is: under setting [10], 100 % of control; under setting [11], 109 % of control.

Regarding `Nc1nc(F)nc2c1ncn2CC(O)CO` (centres undefined), the T/C was 100 % of control (dose: 50.0 mg/kg/injection, schedule: Q01DX005 (ip), vehicle: distilled water + alcohol); 101 % of control (dose: 100.0 mg/kg/injection, schedule: Q01DX005 (ip), vehicle: distilled water + alcohol); 95 % of control (dose: 200.0 mg/kg/injection, schedule: Q01DX005 (ip), vehicle: distilled water + alcohol).

With `c1cc2nncn2cn1`, the T/C is 93 % of control under setting [5]; 104 % of control (dose: 100.0 mg/kg/injection, schedule: Q01DX009 (ip), vehicle: Klucel (hydroxypropylcellulose) (HPC)); 99 % of control (dose: 200.0 mg/kg/injection, schedule: Q01DX009 (ip), vehicle: Klucel (hydroxypropylcellulose) (HPC)).

As to `Nn1c(=S)[nH]nc(/C=C/c2ccc3c(c2)OCO3)c1=O`, the T/C runs as follows: under setting [14], 89 % of control; under setting [13], 91 % of control; (dose: 200.0 mg/kg/injection, schedule: Q01DX009 (ip), vehicle: saline with Tween-80) 98 % of control.

On to `COc1c(C#N)c2c(c(OC)c1OC)-c1ccc(OC)c(=O)cc1[C@@H](NC(C)=O)CC2`, for which the T/C under setting [6] was 113 % of control.
